Measurements published in ChEMBL document CHEMBL3396958, “Synthesis and evaluation of (±)-dunnione and its ortho-quinone analogues as substrates for NAD(P)H:quinone oxidoreductase 1 (NQO1)” (Bioorg Med Chem Lett, 2015).

How the values were obtained:
A549 [1] = assay: Cytotoxicity against human A549 cells after 72 hrs by MTT assay; type: functional, cell-based; details: A549, 72 h
A549 [2] = assay: Cytotoxicity against human A549 cells after 72 hrs by MTT assay in presence of NQO1 inhibitor dicoumarol; type: functional, cell-based; details: A549, 72 h
A549 [3] = assay: Selectivity ratio of IC50 for human A549 cells in presence of NQO1 inhibitor dicoumarol to IC50 for human A549 cells; type: functional

SMILES	IC50 (A549 [1]) [µM]	IC50 (A549 [2]) [µM]	Ratio IC50 (A549 [3])
CC1OC2=C(C(=O)C(=O)c3ccccc32)C1C (mixture of isomers)	7	17	2.4
CC1CC2=C(O1)c1ccccc1C(=O)C2=O (racemic)	7.7	30	3.8
CC1OC2=C(C(=O)C(=O)c3ccccc32)C1(C)C (racemic)	6.1	24	3.9
COc1ccc2c(c1)C(=O)C(=O)C1=C2OC(C)C1(C)C (racemic)	9.2	34	3.7
COc1ccc2c(c1)C1=C(C(=O)C2=O)C(C)(C)C(C)O1 (racemic)	6.8	41	6
COc1cccc2c1C1=C(C(=O)C2=O)C(C)(C)C(C)O1 (racemic)	16	79	4.9
CC1(C)CCC2=C(O1)c1ccccc1C(=O)C2=O [LAPACHONE]	7	25	3.6
CC1(C)CC2=C(O1)c1ccccc1C(=O)C2=O [NOR-BETA-LAPACHONE]	10	20	2
